Source: patent publication US20090093443A1, “COMBINATIONS OF 4- BROMO-2-(4-CHLOROPHENYL)-5-(TRIFLUOROMETHYL)-1H-PYRROLE-3-CARBONITRILE AND BIOCIDAL COMPOUNDS” (JASSEN PHARMACEUTICA N.V., priority 2006, published 2009)

Test system: animal fouling
Assay: Exposure in the Oosterschelde of painted PVC boards
Conditions: for Coverage CO (percentage coverage) / Dry weight Dw (dry weight of fouling organisms) / Fresh weight Fw (fresh weight of fouling organisms): 18 weeks exposure, each active 2.78% in dry paint film; for Coverage CO (percentage coverage): mean of front and backsides of panels; for Dry weight Dw (dry weight of fouling organisms) / Fresh weight Fw (fresh weight of fouling organisms): total of front and backsides; for Coverage % Eo (observed efficacy) / Dry weight % Eo (observed efficacy) / Fresh weight % Eo (observed efficacy): fouling inhibition vs control, 18 weeks, each active 2.78% in dry paint; for Coverage % Eo (observed efficacy): by coverage; for Dry weight % Eo (observed efficacy): by dry weight; for Fresh weight % Eo (observed efficacy): by fresh weight
Text: • Test model: exposure in the Oosterschelde of painted PVC boards • Name of the primary compound: 4-bromo-2-(4-chloro-phenyl)-5-(trifluoromethyl)-1H-pyrrole-3-carbonitrile as component (I) • Name of the combination partners: capsaicine as component (II-d); • clonidine as component (II-e); • zosteric acid as component (II-r). • Test formulations: Paint formulation comprising xylene (47.7%), light aromatic solvent naphtha (CAS 64742-95-6) (16.2%), propylene oxide (0.06%), and zinc oxid (2.24%). Paint was diluted with 10% xylene to obtain the wet paint which was applied to the panels. • Dosage: Individual test compounds were added at a concentration of 1.8% by weight in the wet paint, resulting in 2.78% by weight in the dry paint film. • Test specimens: PVC boards with dimensions of 10×2×0.5 cm. […] Percentage coverage of the panels by fouling organisms as estimated visually. • 2. Fresh weight of fouling organisms on panels in gram. • 3. Dry weight of fouling organisms on panels in gram. Synergy evaluation: Synergy was tested according to the method of Limpel (Limpel, L. E., Schuldt, P. H., and Lamont, D. Weed Control Conf. 16: 48-53, 1962) as described in Colby (Colby, S. R., Weeds 15: 20-22, 1967) and Richer (Richer, D. L., Pesticide Science 19: 309-315, 1987). The single active ingredients were applied at a concentration of 2.78% in the dried coating. In the combinations, both actives were applied at 2.78%, resulting in […] of total active ingredient.

Row | SMILES | Coverage CO (percentage coverage) | Dry weight Dw (dry weight of fouling organisms) | Fresh weight Fw (fresh weight of fouling organisms) | Coverage % Eo (observed efficacy) | Dry weight % Eo (observed efficacy) | Fresh weight % Eo (observed efficacy)
1 | N#Cc1c(-c2ccc(Cl)cc2)[nH]c(C(F)(F)F)c1Br [(I), 4-bromo-2-(4-chlorophenyl)-5-(trifluoromethyl)-1H-pyrrole-3-carbonitrile] | 42.5% | 1.94 gram | 2.90 gram | 19.8% | 37.9% | 36.0%
2 | COc1cc(CNC(=O)CCCC/C=C/C(C)C)ccc1O [(II-d), capsaicine] | 65.0% | 3.58 gram | 5.50 gram | −22.6% | −14.6% | −21.3%
3 | Clc1cccc(Cl)c1N=C1NCCN1 [(II-e), clonidine] | 72.5% | 3.92 gram | 6.10 gram | −36.8% | −25.6% | −33.8%
4 | O=C(O)/C=C/c1ccc(OS(=O)(=O)O)cc1 [(II-r), zosteric acid] | 57.5% | 2.05 gram | 5.40 gram | −8.5% | 34.5% | −18.4%
